Experimental data reported in patent US12295937B2, “Psychoactive medicines and their use for treating psychiatric and neurological conditions and disorders” (Transcend Therapeutics, Inc., priority 2021, dated 2025).

How the values were obtained:
[1] = Methylone PTSD case series with long-term follow-up (CGI-I, safety); assay type: in vivo, human
Excerpt: The patients were not given structured psychotherapy in conjunction with methylone treatment, which differs from recent studies of MDMA that emphasize the importance of a manualized psychedelic-assisted psychotherapy model.
No protected health information was disclosed, and no consent was obtained from patients for use of their archival data. Case narratives were systematically compiled from data collected as part of routine clinical work. Diagnoses were confirmed by an experienced clinician using semi-structured interviews. Baseline symptom severity was evaluated using the Clinical Global Impressions Scale-Severity (CGI-S). Symptom improvement was evaluated using the Clinical Global Impressions Scale-Improvement (CGI-I) following dosing. […] Because these case narratives were examined retrospectively from routine clinical care records, and not gathered prospectively in a research study, more specific validated rating scales for assessing PTSD symptoms were not available. Additionally, follow-up varied, with the length of follow-up ranging from one week (Case 2) to 15 years (Case 16).
Dosing summary: Methylone was administered orally. Other medications were not changed during methylone treatment. […] In several cases, treatment was continued, and, in some cases, the dose was further escalated in later sessions (see Table 5). Booster doses were included for 19 patients in one or more of the sessions. Starting doses were between 100 and 270 mg, and these as well as booster doses were selected based on clinical judgement.

[2] = IMPACT-1 Part A open-label study in PTSD; assay type: in vivo, human; set-up: Anxiety Sub-Scale of MADRS, score reduction / Participants with absence of Reduced Sleep (MADRS): concentration or dose not given beside the values
Experimental: For each participant in Parts A and B, the study consists of: • Screening Period (Day −28 to Day −4): Informed consent, eligibility assessment, and enrolment of eligible participants. • Baseline/Preparatory Session (Day −3 to Day −1): Baseline assessments, confirmation of eligibility, and a preparatory psychoeducation session leading to enrolment confirmation. • Treatment Period (Day 1 to Day 24): Four weekly dose sessions, with associated remote sessions. The dose sessions last at least 8 hours, or until all effects (physical and psychological) have resolved (whichever is longer). Each dose session is followed by a safety phone call 1 day after dosing and efficacy assessments 2 days after dosing. Each dosing period is video recorded for quality and training purposes. The videos may be reviewed to ensure the Mentor is adhering to the Mentor training. • Follow-Up Period (Day 29 to Day 64): Follow-Up visits for safety and efficacy occur at 1, 2, 3 and 6 weeks post-final study drug administration. In addition, there are Mentor-Led Reflection Sessions 1, 2 and 3 weeks post-final study drug administration. Participants are contacted via telephone on Day 57 (±2 days) for Follow-Up. • Discontinuations: Participants who discontinue prematurely are asked to return for an extra visit to duplicate the 6-week end-of-study (EOS) visit.
Each dose was given as an initial dose, followed by a second dose 90 minutes later. During the dosing session, participants were accompanied by a trained Mentor who provided non-directive support. After the 4-week treatment period, participants attended follow-up visits at 1, 2, 3, and 6 weeks following the last dose. Safety was assessed via standard measures including adverse events. PTSD symptoms were assessed via Clinician-Administered PTSD Scale for DSM-5 (CAPS-5), depressive symptoms were assessed via Montgomery-Åsberg Depression Rating Scale (MADRS). Anti-anxiety efficacy was evaluated using the Anxiety Sub-Scale of MADRS, namely, questions (Items 3, 4, 5, 6) that address four anxiety items (inner tension, reduced sleep, reduced appetite, concentration difficulties) Changes from baseline were analyzed using a paired t-test p-values.
Methods: The IMPACT-1 study is a multi-center, two-part clinical trial. Part A has completed and was an open-label evaluation involving 14 participants with PTSD. Eligible participants are adults with severe PTSD (CAPS-5≥35) who had failed at least 1 prior treatment (pharmacotherapy and/or psychotherapy) for PTSD. […] Throughout each dosing session, participants were provided non-directive psychological support by a trained mental health practitioner. Following the 4-week treatment period, participants were followed for an additional 6 weeks to evaluate the durability of the therapeutic effect. PTSD symptom improvement was evaluated on the CAPS-5. Functioning was assessed via the 3 domains (school/work, family life, social life) of the Sheehan Disability Scale (SDS). Global improvement was measured by the CGI-I. Safety was assessed by monitoring adverse events, vital signs, and C-SSRS.
Following the 4-week treatment period, participants were followed for an additional 6 weeks to evaluate the durability of the therapeutic effect. Sleep-related improvements were evaluated on the CAPS-5 (including distressing dreams [item B2; scores range 0 to 4] and sleep disturbances [item E6; scores range 0 to 4]), the Pittsburgh Sleep Quality Index (PSQI; total scores range 0 to 21) and subscales, and the reduced sleep item of the Montgomery-Åsberg Depression Rating Scale (MADRS; scores range 0 to 6).

Q: For `CNC(C)C(=O)c1ccc2c(c1)OCO2` (stereo not shown) [Methylone, 3,4-methylenedioxy-N-methylcathinone], which Adverse events noted ([1]; 21 PTSD patients) is on record?
A: Its Adverse events noted is “four adverse events were noted in three of the 21 patients”.

Q: And the “Patients much improved or very much improved per CGI-I” value ([1]; 21 PTSD patients)?
A: The value was 81%.

Q: What about the “Patients reporting a durable effect” value ([1]; of 17 patients with durability information) of the same molecule?
A: Its value is 16.

Q: What about the “Patients achieving CGI-I 1 (very much improved)” value ([1]; of 21 PTSD patients) of the same molecule?
A: Its value is 9 patients.

Q: And the “Patients achieving CGI-I 2 (much improved)” value ([1]; of 21 PTSD patients)?
A: The value was 8 patients.

Q: What about the “Patients achieving a CGI-I of 1 or 2” value ([1]; of 21 PTSD patients) of the same molecule?
A: The value was 17 patients.

Q: And the “Patients achieving CGI-I 1 or 2” value ([1]; patients with a single dose session (n=9))?
A: Its value is 89%.

Q: What about the “Patients with initial improvement after the initial session” value ([1]; patients with multiple dosing sessions (n=12)) of the same molecule?
A: Its value is 83%.

Q: And the CAPS-5 score decrease ([2]; 6 weeks after the last dose)?
A: The CAPS-5 score decrease was 36.2 points.

Q: And the MADRS score decrease ([2]; 6 weeks after the last dose)?
A: The MADRS score decrease was 21.4 points.

Q: What about the “Anxiety Sub-Scale of MADRS, score reduction” value ([2]; Day 3) of the same molecule?
A: Its value is 20%.

Q: What about the CAPS-5 score decrease ([2]; Day 3) of the same molecule?
A: Its CAPS-5 score decrease is 8.4 points.

Q: What about the MADRS score decrease ([2]; Day 3) of the same molecule?
A: The MADRS score decrease was 8.2 points.

Q: What about the “Anxiety Sub-Scale of MADRS, score reduction” value ([2]; Day 10) of the same molecule?
A: Its value is 43%.

Q: And the CAPS-5 score decrease ([2]; Day 10)?
A: The CAPS-5 score decrease was 23.3 points.

Q: What about the MADRS score decrease ([2]; Day 10) of the same molecule?
A: Its MADRS score decrease is 16.2 points.

Q: And the “Participants achieving remission (CAPS-5)” value ([2]; Day 10)?
A: The value was ~40%.

Q: What about the “Participants much or very much improved (CGI-I)” value ([2]; Day 10, two days after the 2nd dose) of the same molecule?
A: Its value is ~70%.

Q: What about the “Anxiety Sub-Scale of MADRS, score reduction” value ([2]; Day 17) of the same molecule?
A: Its value is 50%.

Q: And the “Anxiety Sub-Scale of MADRS, score reduction” value ([2]; Day 24)?
A: Its value is 57%.

Q: And the “Anxiety Sub-Scale of MADRS, score reduction” value ([2]; Day 29)?
A: Its value is 56%.

Q: And the “Anxiety Sub-Scale of MADRS, score reduction” value ([2]; Day 36)?
A: The value was 66%.

Q: What about the “Anxiety Sub-Scale of MADRS, score reduction” value ([2]; Day 43) of the same molecule?
A: Its value is 64%.

Q: And the “Anxiety Sub-Scale of MADRS, score reduction” value ([2]; Day 64)?
A: Its value is 66%.

Q: And the “SDS score, Family Life” value ([2]; Day 64)?
A: Its value is 3.1 (3.45).

Q: What about the “SDS score, Mean Overall” value ([2]; Day 64) of the same molecule?
A: Its value is 3.1 (3.12).

Q: And the “SDS score, Social Life” value ([2]; Day 64)?
A: The value was 3.2 (3.39).

Q: What about the “SDS score, Work/School” value ([2]; Day 64) of the same molecule?
A: Its value is 3.3 (3.78).

Q: What about the “TEAE: Bruxism” value ([2]; N = 14) of the same molecule?
A: The value was 14.3%.

Q: What about the “TEAE: Decreased appetite” value ([2]; N = 14) of the same molecule?
A: The value was 28.6%.

Q: And the “TEAE: Dizziness” value ([2]; N = 14)?
A: Its value is 14.3%.

Q: And the “TEAE: Fatigue” value ([2]; N = 14)?
A: Its value is 21.4%.

Q: What about the “TEAE: Headache” value ([2]; N = 14) of the same molecule?
A: Its value is 42.9%.

Q: And the “TEAE: Hyperhidrosis” value ([2]; N = 14)?
A: Its value is 14.3%.

Q: What about the “TEAE: Influenza-like illness” value ([2]; N = 14) of the same molecule?
A: Its value is 14.3%.

Q: And the “TEAE: Insomnia” value ([2]; N = 14)?
A: The value was 14.3%.

Q: And the “TEAE: Nasopharyngitis” value ([2]; N = 14)?
A: The value was 14.3%.

Q: And the “TEAE: Non-cardiac chest pain” value ([2]; N = 14)?
A: Its value is 21.4%.

Q: What about the “Drug-related serious adverse events” value ([2]; Part A) of the same molecule?
A: The value was “No drug-related SAEs occurred”.

Q: And the “TEAE: Any AE” value ([2]; Safety Population N = 14)?
A: Its value is 78.6%.

Q: And the “CAPS-5 mean change from baseline” value ([2]; after the first dose)?
A: The value was −8.4 points.

Q: And the “SDS mean change from baseline” value ([2]; after the first dose)?
A: Its value is −1.53.

Q: And the “Participants with absence of Distressing Dreams” value ([2]; after treatment)?
A: Its value is 77%.

Q: And the “Participants with absence of Reduced Sleep (MADRS)” value ([2]; after treatment)?
A: The value was 62%.

Q: What about the “Participants with absence of Sleep Disturbances” value ([2]; after treatment) of the same molecule?
A: Its value is 62%.

Q: What about the “CAPS-5 Distressing Dreams (item B2) mean score” value ([2]; after treatment, baseline 2.2) of the same molecule?
A: The value was 0.38.

Q: What about the “CAPS-5 Sleep Disturbances (item E6) mean score” value ([2]; after treatment, baseline 3.3) of the same molecule?
A: The value was 0.92.

Q: And the “MADRS Reduced Sleep mean score” value ([2]; after treatment, baseline 4.3)?
A: The value was 1.08.

Q: And the “PSQI total mean score” value ([2]; end of study)?
A: Its value is 9.4.

Q: What about the “Participants having mild or no impairment (SDS)” value ([2]; end of study) of the same molecule?
A: The value was > 50%.

Q: What about the “PSQI total score improvement” value ([2]; end of study (6 weeks after the last dose), baseline 13.5) of the same molecule?
A: Its value is −4.0 points.

Q: And the “CAPS-5 mean change from baseline” value ([2]; end of study visit (6 weeks after the last dose))?
A: The value was −36.2 points.

Q: And the “Change in number of days lost” value ([2]; end of the 4-week treatment period, baseline 2.6)?
A: The value was -2.0 days.

Q: What about the “Change in number of days underproductive” value ([2]; end of the 4-week treatment period, baseline 4.7) of the same molecule?
A: Its value is -3.3 days.

Q: And the “Participants achieving remission (CAPS-5)” value ([2]; end of the study)?
A: The value was 61.5%.

Q: What about the “Participants much or very much improved (CGI-I)” value ([2]; end of the study) of the same molecule?
A: Its value is “all participants”.

Q: And the “Patient-reported chronic pain after methylone” value ([2]; one subject, knees, before 7-8 and 8-9 out of 10)?
A: The value was 2-3 out of 10.

Q: And the “SDS mean change from baseline” value ([2]; through the 6-week follow-up period)?
A: Its value is −4.26.
